Reference: the supplement of paper PMC10307832

How the values were obtained:
Test in all cases: relative viability (nuclei count vs DMSO), 5 days (fraction); higher = more cells survive
Salubrinal + Lapatinib = compound: O=C(/C=C/c1ccccc1)NC(NC(=S)Nc1cccc2cccnc12)C(Cl)(Cl)Cl [Salubrinal] + CS(=O)(=O)CCNCc1ccc(-c2ccc3ncnc(Nc4ccc(OCc5cccc(F)c5)c(Cl)c4)c3c2)o1 [Lapatinib] (partner 2 µM)
Method in brief: (§1)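 For relative viability, nuclei counts in treated wells were divided by those in vehicle wells. Lung cancer cell lines had been pin-tool dosed in 1536-well plates the day after seeding and cultured for 5 days, then fixed and stained in one step (final 0.05% Triton X-100, 1% formaldehyde, 1 ug/ml Hoechst) and imaged at 4×. Doses were one drug alone or a fixed anchor-drug dose plus five library-drug doses (not always all listed) in √10 steps, and values are duplicate-plate medians.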

[1] = compound: Cc1ccc2nc(NCCN)c3ncc(C)n3c2c1 + O=C(CCCCCCC(=O)Nc1ccccc1)NO [Vorinostat] (partner 1 µM)
Method in brief: as §1

[2] = compound: Cc1ccc2nc(NCCN)c3ncc(C)n3c2c1 + Nc1ncn([C@H]2C[C@H](O)[C@@H](CO)O2)c(=O)n1 [Decitabine] (partner 2 µM)
Method in brief: as §1

Salubrinal + Alpelisib = compound: O=C(/C=C/c1ccccc1)NC(NC(=S)Nc1cccc2cccnc12)C(Cl)(Cl)Cl [Salubrinal] + Cc1nc(NC(=O)N2CCC[C@H]2C(N)=O)sc1-c1ccnc(C(C)(C)C(F)(F)F)c1 [Alpelisib] (partner 2 µM)
Method in brief: as §1

Cell Line	relative viability (Salubrinal + Lapatinib; first compound 0.08 µM)	relative viability (Salubrinal + Lapatinib; first compound 0.253 µM)	relative viability (Salubrinal + Lapatinib; first compound 0.8 µM)	relative viability (Salubrinal + Lapatinib; first compound 2.53 µM)	relative viability (Salubrinal + Lapatinib; first compound 8 µM)	relative viability ([1]; first compound 0.04 µM)	relative viability ([1]; first compound 0.1265 µM)	relative viability ([1]; first compound 0.4 µM)	relative viability ([1]; first compound 1.265 µM)	relative viability ([1]; first compound 4 µM)	relative viability ([2]; first compound 0.04 µM)	relative viability ([2]; first compound 0.1265 µM)	relative viability ([2]; first compound 0.4 µM)	relative viability ([2]; first compound 1.265 µM)	relative viability ([2]; first compound 4 µM)	relative viability (Salubrinal + Alpelisib; first compound 0.08 µM)	relative viability (Salubrinal + Alpelisib; first compound 0.253 µM)	relative viability (Salubrinal + Alpelisib; first compound 0.8 µM)	relative viability (Salubrinal + Alpelisib; first compound 2.53 µM)	relative viability (Salubrinal + Alpelisib; first compound 8 µM)
HCC-78	0.4	0.795	1.06	0.788	0.832	0.502	0.426	0.402	0.383	0.436	0.745	0.711	0.735	0.664	0.617	0.345	0.377	0.349	0.307	0.316
HCC-366	1.23	0.796	1.12	1.01	1.08	0.421	0.359	0.244	0.361	0.296	0.349	0.362	0.302	0.357	0.34	0.609	0.361	0.426	0.472	0.326
HCC-827	0.191	0.196	0.171	0.235	0.165	0.851	0.793	0.872	0.857	0.81	0.335	0.325	0.333	0.391	0.284	0.995	1.07	0.954	0.985	0.963
HOP-62	1.06	0.927	1.01	1.16	0.968	0.647	0.752	0.401	0.602	0.663	0.24	0.209	0.241	0.177	0.234	0.861	1.26	0.95	1.03	1.21
IA-LM	0.742	0.536	0.916	0.856	0.593	0.92	0.917		1.06	0.981						0.828	0.906	0.885	0.66	0.747
LC-2-ad	1.07	0.608	1.1	0.971	0.868	0.724	0.689	0.652	0.69	0.689	0.728	0.728	0.705	0.712	0.768	1.01	0.784	0.92	0.881	0.831
LCLC-97TM1	1.03	0.799	0.842		0.857	0.865	0.867	0.526	0.759	0.737	0.215	0.21	0.244	0.22	0.236	0.258	0.302	0.254		0.276
LCLC-103H						0.859	0.821	0.686	0.697	0.751	0.71	0.81	0.731	0.717	0.735	0.953	0.917	1.05	1.02	0.932
LK-2	1.07	0.977	1.16	0.994	0.85	0.384	0.409	0.302	0.315	0.322	0.289	0.393	0.337	0.311	0.297	1.33	1.07	1.23	1.19	1.08
LOU-NH91	0.71	0.776	0.776	0.778	0.752	1.02	0.902	0.87	0.931	0.858	0.814	0.807	0.808	0.827	0.797	0.781	0.692	0.72	0.749	0.697
LU99A	1.17	1.15	1.13	0.945	0.594	0.532	0.512	0.423	0.494	0.476	1	0.922	0.91	0.812	0.833	0.644	0.559	0.66	0.476	0.53
NCI-H441						0.925	0.822	0.848	0.806	0.731	0.235	0.245	0.191	0.26	0.235	0.832	0.61	1.01	0.709	0.645
NCI-H522						0.825	0.971	0.677	0.92	1.09	0.573	0.795	0.765	0.62	0.675					
NCI-H1299	0.96	0.924	0.98	0.918	0.883											1.04	1.03	1.05	1.15	0.982
NCI-H1563	0.992	1.05	0.975	0.886	0.882											0.882	0.939	1.1	0.925	0.878
NCI-H1648						0.337	0.458	0.362	0.4	0.317	0.521	0.5	0.568	0.528	0.431					
NCI-H1650	0.805	0.817	0.9	0.731	0.953	0.709	0.466	0.509	0.469	0.478	0.365	0.392	0.374	0.393	0.38					
NCI-H1703	1.24		1.24	0.917	0.892											0.394	0.359	0.324	0.365	0.374
NCI-H1792	1.11		1.64	0.914	0.873						0.614	0.553		0.511	0.461	0.8		0.646	0.676	0.611
NCI-H2228	1.29	0.775	1.35	1.08	0.743	0.639	0.589	0.858	0.595	0.544						0.87	0.582	0.792	0.861	0.725
NCI-H2342						0.869	0.689	0.701	0.784	0.704	0.688	0.73	0.799	0.737	0.72					
SW 900							0.517	0.415	0.421	0.487		0.43	0.448	0.354	0.458					
